# In patent US6673823B2, “Use of peroxisome proliferator activated receptor (PPAR)-γ ligands as a treatment for pituitary tumors and associated conditions, such as Cushing's syndrome” (Cedars-Sinai Medical Center, priority 2002, dated 2004):
# Key:
# [1] = system: mouse corticotroph tumor cells (AtT20); assay: Western blot analysis of TZD-treated corticotroph cells; type: cell-based; conditions: 10^−5 M, vs. vehicle
# Procedure: Western Blot Analysis: AtT20 cells were seeded at about 1×10^6 per well and human pituitary cell cultures were seeded at about 0.5×10^6 per well in 6-well plates for 24 hours prior to treatment with TZD's. Cells were then washed with PBS, and protein samples prepared in RIPA buffer and resolved under reducing conditions on 12% SDS-polyacrylamide gels using standard methods (Elstner, E., et al., Ligands for peroxisome proliferator-activated receptor-γ and retinoic acid receptor inhibit growth and induce apoptosis of human breast cancer cells in vitro and in BNX mice. Proc. Natl. Acad. Sci. USA 95:8806-8811 [1998]). Resolved proteins were transferred to nitrocellulose membranes and probed with antibodies to Bc1-2 (1:500), Bax (1:1000), TRAIL (1:500), p53 (1:1000) (all from Santa-Cruz, Cailf.), p-Rb (Ser 795) (1:1000), cleaved and uncleaved caspase-3 (1:500) (Cell Signalling, Beverly, Mass.) overnight at 4° C. After washing, membranes were incubated with appropriate IgG- horseradish peroxidase conjugates, and immunoreactive protein bands were visualized with ECL (Amersham, Buckinghamshire, UK). Total protein was normalized by reprobing with anti-actin antibody (1:5000, Sigma, St. Louis, Mo.) or Ponceau S staining, and protein bands quantified by densitometry (Video Densitometer model 620, Bio-Rad).
# human patients = conditions: withdrawn in March, 2000; cited from earlier work
# AtT20 cells = assay: TUNEL apoptosis analysis; type: cell-based, mouse; conditions: CRH 50 nM alone, 24 hours
# Procedure: Terminal Deoxynucleotidyltransferase-mediated dUTP Nick End Labeling (TUNEL). Apoptosis-induced nuclear DNA fragmentation was detected using the in situ cell death detection kit, TMR red (Roche Diagnostics, Indianapolis, IN) following the manufacturer's protocol. Briefly, 48 hours following treatment with thiazolidinedione compounds (TZDs), AtT20 cells were fixed in 4% paraformaldehyde, permeabilized with 0.1% sodium citrate/ 0.6% Tween 20 (pH 7.4) for 2 min at 4° C. prior to incubation in Tunel reaction mix (TMR red/dNTP mix, TdT, and labeling buffer) for 60 min at 37° C. Slides were washed (3×5 min) in PBS/ Triton/ BSA (0.3%) and visualized on an Olympus BH2 immunofluorescent microscope.
# [2] = system: POMC promoter (-706/+64 rat POMC-luc) in AtT20 cells; assay: POMC promoter luciferase reporter transfection; type: cell-based, mouse; conditions: CRH 50 nM, luciferase over vehicle control
# Excerpt: Transfection with POMC promoter.
Compound,expression of pro-apoptotic protein p53 [1],reason for market withdrawal (human patients),% apoptosis (TUNEL) (AtT20 cells) [%],increase in POMC-transcription [2] [fold]
"Cc1c(C)c2c(c(C)c1O)CCC(C)(COc1ccc(CC3SC(=O)NC3=O)cc1)O2 (racemic) [Troglitazone, (±)-5-[4[(6-Hydroxy-2,5,7,8-tetramethylchroman-2-yl)methoxy]-benzyl]-2,4-thiazolidinedione]",increased expression,reports of liver toxicity in humans,–,–
"CRH: Corticotrophin releasing hormone, a potent corticotroph proliferative factor",–,–,4±0.5,1.6
